From patent US20110124867A1, “Process and intermediates for the Synthesis of heterocyclic Substituted Piperazines with CXCR3 Antagonist Activity” (Schering Corporation, priority 2007, published 2011)

How the values were obtained:
CXCR3 = biological target: T1, CXCR3 (Homo sapiens, UniProt P49682); details: statement in words, refers to the '641 application; cited from earlier work
T1 sequence (P49682 1-368): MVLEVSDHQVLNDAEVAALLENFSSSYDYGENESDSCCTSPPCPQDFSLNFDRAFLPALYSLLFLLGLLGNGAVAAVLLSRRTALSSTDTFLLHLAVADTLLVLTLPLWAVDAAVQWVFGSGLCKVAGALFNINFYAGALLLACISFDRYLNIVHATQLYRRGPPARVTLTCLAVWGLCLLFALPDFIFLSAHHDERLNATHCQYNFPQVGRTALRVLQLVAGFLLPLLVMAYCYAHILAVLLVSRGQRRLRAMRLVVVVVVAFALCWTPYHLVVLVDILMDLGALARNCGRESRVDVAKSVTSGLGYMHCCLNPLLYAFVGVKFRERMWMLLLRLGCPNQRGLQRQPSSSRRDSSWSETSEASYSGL

[1] = aqueous solubility of salt forms (comparison in words, no method given); assay type: physicochemical; details: methylsulfonate salt compared to other salts

aqueous solubility [1]	SMILES	CXCR3 inhibitor activity (CXCR3)
	CCNc1nnc(-c2cnc(N3C[C@H](CC)N(C4CCN(C(=O)c5ccc(Cl)cc5)CC4)C[C@H]3C)c(C)n2)o1 [Compound A45]	useful CXCR3 inhibitor activity
higher aqueous solubility	CCNc1nnc(-c2cnc(N3C[C@H](CC)N(C4CCN(C(=O)c5ccc(Cl)cc5)CC4)C[C@H]3C)c(C)n2)o1 [Compound II-1]	
